The target of assay [1] is T1, AmpC (Pseudomonas aeruginosa, UniProt P24735).
T1 construct: AmpC, TEM-1, KPC-2 or OXA-2 domain excluding signal peptide was amplified with PCR; made in house; host or cells: Escherichia coli BL21 (DE3), pET-28b(+)
The assay is described as follows: biochemical.

In assay [2] the target is T2, TEM-1 (Escherichia coli, UniProt P62593).
T2 construct: AmpC, TEM-1, KPC-2 or OXA-2 domain excluding signal peptide was amplified with PCR; made in house; host or cells: Escherichia coli BL21 (DE3), pET-28b(+)
Put plainly: β-Lactamase inhibitory activity (nitrocefin hydrolysis), TEM-1. In kind it is biochemical. Conditions: TEM-1 0.1 nM, 100 μM nitrocefin, pre-incubation 30° C. 10 minutes. The procedure: Using Pseudomonas aeruginosa ATCCBAA-47 genome, plasmid pBR322, Klebsiella pneumoniae ATCCBAA-1705, and P. aeruginosa MSC17696 as a template, each DNA for encoding β-lactamase, AmpC, TEM-1, KPC-2 or OXA-2 domain excluding signal peptide was amplified with PCR. Each of the PCR product was incorporated into pET-28b(+)vector (Merck), introduced into Escherichia coli BL21 (DE3) (Merck), and, under induction of 1 mM isopropyl-β-D-(−)-thiogalactopyranoside (Nacalai Tesque), cultured overnight at 20° C. to express AmpC, TEM-1, KPC-2, and OXA-2. After the bacterial cell was collected, AmpC was purified from the cell extract obtained by ultrasonic treatment, using CM Sepharose Fast Flow (GE Healthcare) and HiTrap Heparin HP (GE Healthcare) at 4° C. TEM-1 was purified with HiTrap SPHP (GE Healthcare), HiTrap Q (GE Healthcare) and Mono Q (GE Healthcare), and KPC-2 was purified with HiTrap SPHP. OXA-2 was purified with HiTrap SPHP and HiTrap Heparin HP.
For the measurement of β-lactamase inhibitory activity, 100 μM (final concentration) nitrocefin (Oxoid) was used as a substrate, and 2.5% DMSO, 10 μg/mL bovine serum derived albumin (Sigma-Aldrich) and 50 mM phosphate buffer at pH 7.0 were used as a reaction solution. […] Nitrocefin was added to each well to be mixed therein, followed by incubation at 30° C. for 20 minutes, and Multiscan Ascent (Thermo Fisher Scientific) was used to measure 492 nm wavelength, thereby measuring nitrocefin hydrolytic activity of β-Lactamase, to determine enzyme inhibitory activity. […] As the inhibitory activity strength, less than 0.1 μM, less than 1 μM, less than 3 μM, less than 10 μM, and 10 μM or more were shown with A, B, C, D, and E respectively.

Assay [3] concerns the target T3, KPC-2 (Klebsiella pneumoniae, UniProt Q9F663).
T3 construct: AmpC, TEM-1, KPC-2 or OXA-2 domain excluding signal peptide was amplified with PCR; made in house; host or cells: Escherichia coli BL21 (DE3), pET-28b(+)
The assay is described as follows: β-Lactamase inhibitory activity (nitrocefin hydrolysis), KPC-2. It counts as biochemical. As to conditions: KPC-2 0.5 nM, 100 μM nitrocefin, pre-incubation 30° C. 10 minutes.

For assay [4], the target named is T4, OXA-2 (Escherichia coli, UniProt P0A1V9).
T4 construct: AmpC, TEM-1, KPC-2 or OXA-2 domain excluding signal peptide was amplified with PCR; made in house; host or cells: Escherichia coli BL21 (DE3), pET-28b(+)
Put plainly: biochemical. Details: species or system P. aeruginosa.

Where [5] appears, read: OXA-2 2 nM, 100 μM nitrocefin, pre-incubation 30° C. 10 minutes, read-out: β-Lactamase inhibitory activity OXA-2 (IC50).

The structures appear in SMILES notation. Like-named read-outs stand apart in the source and are kept apart here.

In general, IC50 refers to the concentration at which inhibition is half-maximal.

T2 sequence (P62593 24-286 limits assumed): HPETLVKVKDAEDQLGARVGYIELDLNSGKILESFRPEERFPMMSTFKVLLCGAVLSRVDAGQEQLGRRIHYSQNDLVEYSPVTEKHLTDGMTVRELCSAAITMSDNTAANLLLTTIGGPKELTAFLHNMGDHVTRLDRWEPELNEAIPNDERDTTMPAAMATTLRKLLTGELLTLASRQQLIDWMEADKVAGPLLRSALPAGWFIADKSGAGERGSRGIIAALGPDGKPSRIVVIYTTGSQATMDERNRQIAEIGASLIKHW
T1 sequence (P24735 27-397): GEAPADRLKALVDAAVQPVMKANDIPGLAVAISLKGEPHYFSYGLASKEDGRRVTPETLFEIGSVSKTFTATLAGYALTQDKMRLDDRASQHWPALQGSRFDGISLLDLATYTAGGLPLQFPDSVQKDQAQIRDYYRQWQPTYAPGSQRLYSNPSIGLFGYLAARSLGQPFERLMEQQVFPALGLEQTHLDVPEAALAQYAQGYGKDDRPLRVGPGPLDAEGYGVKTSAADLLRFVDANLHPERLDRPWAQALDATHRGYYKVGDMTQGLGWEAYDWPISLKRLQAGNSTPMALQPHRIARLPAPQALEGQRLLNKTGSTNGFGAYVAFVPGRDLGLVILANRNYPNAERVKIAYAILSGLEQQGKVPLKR
T3 sequence (Q9F663 25-293, looked up): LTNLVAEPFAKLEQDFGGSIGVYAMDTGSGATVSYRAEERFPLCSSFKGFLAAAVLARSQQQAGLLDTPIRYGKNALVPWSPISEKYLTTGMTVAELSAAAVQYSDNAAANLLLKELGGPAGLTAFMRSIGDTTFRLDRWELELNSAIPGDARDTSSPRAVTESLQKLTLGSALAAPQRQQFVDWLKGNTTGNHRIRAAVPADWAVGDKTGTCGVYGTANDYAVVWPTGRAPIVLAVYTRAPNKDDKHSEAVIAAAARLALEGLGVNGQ
T4 sequence (P0A1V9 22-275): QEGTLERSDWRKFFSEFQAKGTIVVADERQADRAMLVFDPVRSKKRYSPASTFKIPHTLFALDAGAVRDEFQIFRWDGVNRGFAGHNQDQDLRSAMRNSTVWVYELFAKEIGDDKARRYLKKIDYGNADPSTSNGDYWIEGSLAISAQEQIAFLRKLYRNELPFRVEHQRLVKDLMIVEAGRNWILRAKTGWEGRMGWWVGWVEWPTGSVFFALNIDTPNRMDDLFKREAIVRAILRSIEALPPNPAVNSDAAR

In the case of `NCCC(=O)NNC(=O)[C@@H]1CC[C@@H]2CN1C(=O)N2OS(=O)(=O)O` [Example 27, (2S,5R)—N′-(3-Aminopropanoyl)-7-oxo-6-(sulfooxy)-1,6-diazabicyclo[3.2.1]octane-2-carbohydrazide], the IC50 was 0.1 to 1 µM in assay [1], less than 0.1 µM in assay [2], 1 to 3 µM in assay [3] and 1 to 3 µM in assay [4] (setting [5]).

With `Nc1ccc(CC(=O)NNC(=O)[C@@H]2CC[C@@H]3CN2C(=O)N3OS(=O)(=O)O)cc1` [Example 28, (2S,5R)—N′-[(4-Aminophenyl)acetyl]-7-oxo-6-(sulfooxy)-1,6-diazabicyclo[3.2.1]octane-2-carbohydrazide], the IC50 is less than 0.1 µM in assay [1], less than 0.1 µM in assay [2], 0.1 to 1 µM in assay [3] and 3 to 10 µM in assay [4] (setting [5]).

For `COCC(=O)NNC(=O)[C@@H]1CC[C@@H]2CN1C(=O)N2OS(=O)(=O)O` [Example 29, Sodium (2S,5R)—N′-(methoxyacetyl)-7-oxo-6-(sulfooxy)-1,6-diazabicyclo[3.2.1]octane-2-carbohydrazide], the IC50 in assay [1] was 0.1 to 1 µM; in assay [2] it was less than 0.1 µM; in assay [3], 0.1 to 1 µM; in assay [4], 3 to 10 µM.

Regarding `Nc1ccc(C(=O)NNC(=O)[C@@H]2CC[C@@H]3CN2C(=O)N3OS(=O)(=O)O)cc1` [Example 31, (2S,5R)—N′-(4-Aminobenzoyl)-7-oxo-6-(sulfooxy)-1,6-diazabicyclo[3.2.1]octane-2-carbohydrazide], the IC50 in assay [1] was 0.1 to 1 µM; in assay [2] it was less than 0.1 µM; in assay [3] it was 0.1 to 1 µM; in assay [4] (setting [5]), 3 to 10 µM.

For `O=C(NNC(=O)[C@@H]1CC[C@@H]2CN1C(=O)N2OS(=O)(=O)O)C1CCOCC1` [Example 34, Sodium (2S,5R)-7-oxo-6-(sulfooxy)-N′-(tetrahydro-2H-pyran-4-ylcarbonyl)-1,6-diazabicyclo[3.2.1]octane-2-carbohydrazide], the IC50 in assay [1] was less than 0.1 µM; in assay [2], less than 0.1 µM; in assay [3] it was 0.1 to 1 µM; in assay [4] it was 3 to 10 µM.

Turning to `O=C(NNC(=O)[C@@H]1CC[C@@H]2CN1C(=O)N2OS(=O)(=O)O)C1CCNCC1` [Example 35, (2S,5R)-7-Oxo-N′-(piperidine-4-ylcarbonyl)-6-(sulfooxy)-1,6-diazabicyclo[3.2.1]octane-2-carbohydrazide], the IC50 in assay [1] is 0.1 to 1 µM; in assay [2], less than 0.1 µM; in assay [3], 3 to 10 µM; in assay [4] (setting [5]) it was 1 to 3 µM.

For `O=C(NNC(=O)[C@@H]1CC[C@@H]2CN1C(=O)N2OS(=O)(=O)O)[C@@H]1CCCCN1` [Example 36, (2S,5R)-7-Oxo-N′-[(2S)-piperidine-2-ylcarbonyl]-6-(sulfooxy)-1,6-diazabicyclo[3.2.1]octane-2-carbohydrazide], the IC50 is 0.1 to 1 µM in assay [1], less than 0.1 µM in assay [2], 1 to 3 µM in assay [3] and 3 to 10 µM in assay [4] (setting [5]).

With `O=C(NNC(=O)[C@@H]1CC[C@@H]2CN1C(=O)N2OS(=O)(=O)O)[C@H]1CCCCN1` [Example 37, (2S,5R)-7-Oxo-N′-[(2R)-piperidine-2-ylcarbonyl]-6-(sulfooxy)-1,6-diazabicyclo[3.2.1]octane-2-carbohydrazide], the IC50 was 1 to 3 µM in assay [1], less than 0.1 µM in assay [2], 1 to 3 µM in assay [3] and 1 to 3 µM in assay [4] (setting [5]).

In the case of `O=C(NNC(=O)[C@@H]1CC[C@@H]2CN1C(=O)N2OS(=O)(=O)O)[C@@H]1CCCN1` [Example 38, (2S,5R)-7-Oxo-N′-[(2S)-pyrrolidin-2-ylcarbonyl]-6-(sulfooxy)-1,6-diazabicyclo[3.2.1]octane-2-carbohydrazide], the half-maximal inhibitory concentration (IC50) is 0.1 to 1 µM in assay [1], less than 0.1 µM in assay [2], 0.1 to 1 µM in assay [3] and 1 to 3 µM in assay [4] (setting [5]).

Consider `O=C(NNC(=O)[C@@H]1CC[C@@H]2CN1C(=O)N2OS(=O)(=O)O)[C@H]1CCCN1` [Example 39, (2S,5R)-7-Oxo-N′-[(2R)-pyrrolidin-2-ylcarbonyl]-6-(sulfooxy)-1,6-diazabicyclo[3.2.1]octane-2-carbohydrazide], for which the IC50 in assay [1] was less than 0.1 µM; in assay [2], less than 0.1 µM; in assay [3] it was 1 to 3 µM; in assay [4] (setting [5]), 1 to 3 µM.

On to `O=C(NNC(=O)[C@@H]1CC[C@@H]2CN1C(=O)N2OS(=O)(=O)O)[C@@H]1C[C@H](CC2CC2)CCN1` [Example 40, (2S,5R)—N′-{[(2S,4R)-4-Cyclopropylmethylpiperidine-2-yl]carbonyl}-7-oxo-6-(sulfooxy)-1,6-diazabicyclo[3.2.1]octane-2-carbohydrazide], for which the IC50 in assay [1] is 0.1 to 1 µM; in assay [2] it was less than 0.1 µM; in assay [3], 3 to 10 µM; in assay [4] (setting [5]) it was 1 to 3 µM.

For the compound `O=C1CC[C@@H](C(=O)NNC(=O)[C@@H]2CC[C@@H]3CN2C(=O)N3OS(=O)(=O)O)N1` [Example 41, Sodium (2S,5R)-7-oxo-N′-{[(2S)-5-oxopyrrolidin-2-yl]carbonyl}-6-(sulfooxy)-1,6-diazabicyclo[3.2.1]octane-2-carbohydrazide], the IC50 in assay [1] lay within 0.1 to 1 µM; in assay [2], 0.1 to 1 µM; in assay [3] it was 1 to 3 µM; in assay [4], 3 to 10 µM.

In the case of `O=C1CC[C@H](C(=O)NNC(=O)[C@@H]2CC[C@@H]3CN2C(=O)N3OS(=O)(=O)O)N1` [Example 42, Sodium (2S,5R)-7-oxo-N′-{[(2R)-5-oxopyrrolidin-2-yl]carbonyl}-6-(sulfooxy)-1,6-diazabicyclo[3.2.1]octane-2-carbohydrazide], the IC50 in assay [1] lay in the range of 0.1 to 1 µM; in assay [2] it was 0.1 to 1 µM; in assay [3] it was 0.1 to 1 µM; in assay [4] it was 1 to 3 µM.

As for `O=C(NNC(=O)[C@@H]1CC[C@@H]2CN1C(=O)N2OS(=O)(=O)O)c1ccco1` [Example 43, Sodium (2S,5R)—N′-(furan-2-ylcarbonyl)-7-oxo-6-(sulfooxy)-1,6-diazabicyclo[3.2.1]octane-2-carbohydrazide], the IC50 was 0.1 to 1 µM in assay [1], less than 0.1 µM in assay [2], 0.1 to 1 µM in assay [3] and 1 to 3 µM in assay [4].

For `O=C(NNC(=O)[C@@H]1CC[C@@H]2CN1C(=O)N2OS(=O)(=O)O)c1cocn1` [Example 44, Sodium (2S,5R)—N′-(1,3-oxazol-4-ylcarbonyl)-7-oxo-6-(sulfooxy)-1,6-diazabicyclo[3.2.1]octane-2-carbohydrazide], the concentration for half-maximal inhibition (IC50) was less than 0.1 µM in assay [1], less than 0.1 µM in assay [2], less than 0.1 µM in assay [3] and 1 to 3 µM in assay [4].

Turning to `O=C(NNC(=O)[C@@H]1CC[C@@H]2CN1C(=O)N2OS(=O)(=O)O)c1cccnc1` [Example 45, Sodium (2S,5R)-7-oxo-N′-(pyridine-3-ylcarbonyl)-6-(sulfooxy)-1,6-diazabicyclo[3.2.1]octane-2-carbohydrazide], the IC50 was less than 0.1 µM in assay [1], less than 0.1 µM in assay [2], 0.1 to 1 µM in assay [3] and 1 to 3 µM in assay [4].

Regarding `O=C(NNC(=O)[C@@H]1CC[C@@H]2CN1C(=O)N2OS(=O)(=O)O)c1ccncc1` [Example 46, Sodium (2S,5R)-7-oxo-N′-(pyridine-4-ylcarbonyl)-6-(sulfooxy)-1,6-diazabicyclo[3.2.1]octane-2-carbohydrazide], the IC50 is less than 0.1 µM in assay [1], less than 0.1 µM in assay [2], 0.1 to 1 µM in assay [3] and 1 to 3 µM in assay [4].

As to `CN(C)C(=O)NNC(=O)[C@@H]1CC[C@@H]2CN1C(=O)N2OS(=O)(=O)O` [Example 47, Sodium N,N-dimethyl2-{[(2S,5R)-7-oxo-6-(sulfooxy)-1,6-diazabicyclo[3.2.1]oct-2-yl]carbonyl}hydrazinecarboxamide], the IC50 was 0.1 to 1 µM in assay [1], less than 0.1 µM in assay [2], 0.1 to 1 µM in assay [3] and 3 to 10 µM in assay [4].

For the compound `CCN(CC)C(=O)NNC(=O)[C@@H]1CC[C@@H]2CN1C(=O)N2OS(=O)(=O)O` [Example 48, Sodium N,N-diethyl2-{[(2S,5R)-7-oxo-6-(sulfooxy)-1,6-diazabicyclo[3.2.1]oct-2-yl]carbonyl}hydrazinecarboxamide], the half-inhibitory concentration (IC50) in assay [1] was less than 0.1 µM; in assay [2] it was 0.1 to 1 µM; in assay [3], 0.1 to 1 µM; in assay [4], 3 to 10 µM.

The values above are taken from US10556905B2, “Processes for preparing a diazabicyclooctane compound” (priority 2012, dated 2020).
